Reference: patent US20240041042A1, “1-(PYRIDYL)-5-AZINYLPYRAZOLE DERIVATIVES, AND THEIR USE FOR CONTROL OF UNDESIRED PLANT GROWTH” (Bayer Aktiengesellschaft, priority 2020, published 2024)

Columns and labels:
Format in all cases: in vivo
[1] = tested on: Abutilon theophrasti (ABUTH); experiment: Pre-emergence herbicidal action against ABUTH; settings: 100% = plants have died
How it was run: (§1)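 Pre-emergence soil-surface spray of compound, formulated as wettable powder or emulsion concentrate, in aqueous suspension or emulsion with 0.5% additive (600 l/ha; rate 320 g/ha or less). Activity rated visually after roughly 3 weeks in the greenhouse as a percentage of untreated controls, 0% meaning no difference.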

[2] = tested on: Alopecurus myosuroides (ALOMY); experiment: Pre-emergence herbicidal action against ALOMY; settings: scored visually after about 3 weeks, 100% = plants have died
How it was run: as §1

[3] = tested on: Amaranthus retroflexus (AMARE); experiment: Pre-emergence herbicidal action against AMARE; settings: visual scoring after about 3 weeks vs untreated controls
How it was run: as §1

[4] = tested on: Matricaria inodora (MATIN); experiment: Pre-emergence herbicidal action against MATIN
How it was run: as §1

[5] = tested on: Polygonum convolvulus (POLCO); experiment: Pre-emergence herbicidal action against POLCO
How it was run: as §1

[6] = tested on: Abutilon theophrasti (ABUTH); experiment: Post-emergence herbicidal action against ABUTH; settings: visual rating about 3 weeks after treatment vs untreated controls (100% = plants have died, 0% = like control plants)
How it was run: (§2)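 Greenhouse plants sprayed at the one-leaf stage, 2–3 weeks after sowing, with WP or EC formulations plus 0.5% additive at 600 l/ha water. Activity rated visually after about 3 weeks versus untreated controls (100% = dead, 0% = like control), at 320 g/ha or lower.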

[7] = tested on: Alopecurus myosuroides (ALOMY); experiment: Post-emergence herbicidal action against ALOMY; settings: visual rating about 3 weeks after treatment vs untreated controls (100% = plants have died, 0% = like control plants)
How it was run: as §2

[8] = tested on: Amaranthus retroflexus (AMARE); experiment: Post-emergence herbicidal action against AMARE
How it was run: as §2

[9] = tested on: Lolium rigidum (LOLRI); experiment: Post-emergence herbicidal action against LOLRI
How it was run: as §2

[10] = tested on: Polygonum convolvulus (POLCO); experiment: Post-emergence herbicidal action against POLCO
How it was run: as §2

[11] = 80 g/ha, scored visually after about 3 weeks vs untreated controls, 0% = like control plants
[12] = Dosage column 320 g/ha (title prints 3200 g/ha), scored visually after about 3 weeks
[13] = 80 g/ha, visual rating about 3 weeks after treatment vs untreated controls (100% = plants have died, 0% = like control plants)
[14] = 320 g/ha, visual rating about 3 weeks after treatment

| Compound | Pre-emergence action against ABUTH [1, 11] [%] | Pre-emergence action against ABUTH [1, 12] [%] | Pre-emergence action against ALOMY ([2]; 80 g/ha) [%] | Pre-emergence action against ALOMY ([2]; 320 g/ha) [%] | Pre-emergence action against AMARE in % ([3]; 80 g/ha) [%] | Pre-emergence action against AMARE in % ([3]; 320 g/ha) [%] | Pre-emergence action against MATIN in % ([4]; dosage 80 g/ha) [%] | Pre-emergence action against MATIN in % ([4]; dosage 320 g/ha) [%] | Pre-emergence action against POLCO in % ([5]; dosage 80 g/ha) [%] | Pre-emergence action against POLCO in % ([5]; dosage 320 g/ha) [%] | Post-emergence action against ABUTH in % ([6]; 80 g/ha) [%] | Post-emergence action against ABUTH in % ([6]; 320 g/ha) [%] | Post-emergence action against ALOMY in % ([7]; 80 g/ha) [%] | Post-emergence action against ALOMY in % ([7]; 320 g/ha) [%] | Post-emergence action against AMARE in % [8, 13] [%] | Post-emergence action against AMARE in % [8, 14] [%] | Post-emergence action against LOLRI in % ([9]; dosage 80 g/ha) [%] | Post-emergence action against LOLRI in % ([9]; dosage 320 g/ha) [%] | Post-emergence action against POLCO in % ([10]; dosage 80 g/ha) [%] | Post-emergence action against POLCO in % ([10]; dosage 320 g/ha) [%] |
| --- | --- | --- | --- | --- | --- | --- | --- | --- | --- | --- | --- | --- | --- | --- | --- | --- | --- | --- | --- | --- |
| CCOC(=O)[C@@H](C)Oc1nn(-c2ccccn2)c(-c2cncc(F)c2)c1Cl [Example I-184] | 90 | 90 | 90 | 100 | 100 | 100 | 90 | 90 | 90 | 90 | 80 | 90 | 80 | 90 | 80 | 80 | 90 | 90 | 80 | 80 |
| O=C(O)COc1nn(-c2ncccc2F)c(-c2cncc(F)c2)c1C1CC1 [Example I-175] | 80 | 90 | 100 | 100 | 100 | 100 | 90 | 90 | 90 | 90 | 80 | 80 | 90 | 90 | 80 | 80 | 80 | 80 | 80 | 80 |
| C[C@@H](Oc1nn(-c2ncccc2F)c(-c2ccc(F)nc2)c1I)C(=O)O [Example I-343] | 80 | 100 | 90 | 90 | 100 | 100 | – | 100 | 90 | 100 | 80 | 90 | 90 | 100 | 80 | 80 | – | 90 | 80 | 80 |
| CCOC(=O)COc1nn(-c2ncccc2F)c(-c2cncc(F)c2)c1C1CC1 [Example I-174] | – | 90 | 90 | 100 | 100 | 100 | 90 | 90 | 90 | 100 | 80 | 80 | 90 | 90 | 80 | 80 | 80 | 80 | – | 80 |
| COC(=O)[C@H](C)COC(=O)COc1nn(-c2ccccn2)c(-c2cncc(F)c2)c1Cl [Example I-192] | – | 80 | 90 | 90 | 80 | 100 | 90 | 90 | 90 | 100 | – | 80 | 90 | 90 | 80 | 80 | – | 80 | – | 80 |
| COC(=O)[C@@H](C)Oc1nn(-c2ncccc2F)c(-c2ccc(F)nc2)c1C(F)(F)F [Example I-331] | 80 | 90 | 100 | 100 | 100 | 100 | 100 | 100 | 100 | 100 | 90 | 90 | 100 | 100 | 80 | 80 | 90 | 90 | 80 | 80 |
